Consider eleven molecules from ChEMBL document CHEMBL1201862, “PubChem BioAssay data set” (2004).

Experiment in all cases: DTP human tumour cell line panel, 48 h
Experiment [1] concerns OVCAR-4.
Experiment [2] deals with TK-10.
Experiment [3] deals with SN12C.
Experiment [4] has as its system U-251.
For experiment [5], the system named is 786-0.
Experiment [6] concerns EKVX.
Experiment [7] deals with IGROV-1.
The test system of experiment [8] is KM12.
The subject of experiment [9] is HCT-116.
Experiment [10] deals with MDA-N.
Experiment [11] relates to HL-60.
The test system of experiment [12] is M14.
The test system of experiment [13] is SK-MEL-5.
Experiment [14] concerns HOP-62.
Experiment [15] deals with K562.
Experiment [16] deals with MDA-MB-231.
In experiment [17] the test system is HT-29.
For experiment [18], the system named is HOP-92.
Experiment [19] relates to SK-MEL-2.
Experiment [20] concerns NCI-H460.

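Compound exposure: 48 hours, 5 concentrations, 96-well plates. GI50 = concentration required for 50% inhibition of growth.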 Calls of active or inactive are those of the source. Rule as the data show it: active = GI50 up to about 1.1 µM and inactive = higher.

As for `Cc1ccc(C2=NOC(=O)[C@@H]3CCCC[C@@H]23)cc1`, the GI50 in [1], in experiment [2], in experiment [3], in experiment [4], in experiment [5] and in [6] was > 100 µM (inactive) each time. The GI50 in experiment [7], in experiment [8], in [9], in experiment [10], in [11] and in [12] was > 100 µM (inactive) each time. Moreover, the GI50 in experiment [13] was > 100 µM (inactive); in experiment [14], > 100 µM (inactive); in experiment [15] it was > 100 µM (inactive); in [16], 75.3 µM (inactive); in experiment [17], > 100 µM (inactive).
`N#CC1C(=O)NC(=O)C(C#N)C1c1ccc(Cl)c(Cl)c1` (centres undefined): the GI50 is 81.8 µM (inactive) in experiment [1]; 35.3 µM (inactive) in experiment [2]; < 0.01 µM (active) in experiment [3]; 23.7 µM (inactive) in [4]; 20.1 µM (inactive) in experiment [5]; > 100 µM (inactive) in experiment [6]. Also, the GI50 is 18.1 µM (inactive) in experiment [7]; 33.7 µM (inactive) in experiment [8]; 13.9 µM (inactive) in [9]; 35.4 µM (inactive) in experiment [11]; 23.4 µM (inactive) in experiment [12]; 20.9 µM (inactive) in [13]. Besides, the GI50 is 20.4 µM (inactive) in experiment [14]; 37.4 µM (inactive) in experiment [18]; 80.2 µM (inactive) in experiment [19]; 28.8 µM (inactive) in experiment [15]; < 0.01 µM (active) in experiment [16]; 16.7 µM (inactive) in experiment [17]. The GI50 in experiment [20] is 30.1 µM (inactive).
Consider `COC(=O)C1=C(C(=O)OC)SC2(S1)C(C(=O)OC)=C(C(=O)OC)Sc1c2ss/c1=N/C(C)(C)C`, for which the GI50 in [1] is 1.79 µM (inactive); in experiment [2], 1.64 µM (inactive); in [3], 1.22 µM (inactive); in experiment [4], 1.72 µM (inactive); in experiment [5] it was 1.31 µM (inactive); in [6], 1.49 µM (inactive). For the same molecule, the GI50 in experiment [7] is 1.4 µM (inactive); in experiment [8] it was 1.57 µM (inactive); in experiment [9], 0.769 µM (active); in experiment [11], 0.753 µM (active); in [12] it was 1.66 µM (inactive); in [13], 1.91 µM (inactive). Further, the GI50 is 3.72 µM (inactive) in experiment [14]; 1.3 µM (inactive) in experiment [18]; 1.34 µM (inactive) in experiment [19]; 2.21 µM (inactive) in [15]; 1.64 µM (inactive) in [16]; 1.17 µM (inactive) in experiment [17]. Moreover, the GI50 in experiment [20] is 0.533 µM (active).
With `CC1(C)CC(O)CC(C)(C)N1O` [TEMPOL HYDROXYLAMINE], the GI50 in [2], in experiment [3], in [5], in experiment [6], in experiment [7] and in [8] was > 100 µM (inactive) in each case. For the same molecule, the GI50 in [9], in experiment [10], in [12], in experiment [13], in experiment [14] and in experiment [19] was > 100 µM (inactive) each time. The GI50 in experiment [15], in experiment [16], in experiment [17] and in experiment [20] was > 100 µM (inactive) each time.
Turning to `O=C(OCC(Cl)(Cl)Cl)O[C@@H]1CCCC1(c1ccccc1)c1ccccc1`, the GI50 in [1], in experiment [2], in experiment [3], in [4], in experiment [5] and in [6] was > 100 µM (inactive) in each case. Further, the GI50 was > 100 µM (inactive) in experiment [7]; 45.3 µM (inactive) in experiment [8]; 44.8 µM (inactive) in experiment [9]; 72.4 µM (inactive) in [10]; > 100 µM (inactive) in experiment [12]; 35.9 µM (inactive) in experiment [13]. Further, the GI50 in [14] is > 100 µM (inactive); in experiment [15], 30.8 µM (inactive); in [16] it was > 100 µM (inactive); in experiment [17], > 100 µM (inactive); in experiment [20] it was 71 µM (inactive).
Turning to `[N-]=[N+]=NC1(c2ccccc2)C(=O)c2cccc3c4ccccc4n(c23)C1=O` (centres undefined), the GI50 was > 100 µM (inactive) in [1]; > 100 µM (inactive) in experiment [2]; > 100 µM (inactive) in [3]; > 100 µM (inactive) in [4]; > 100 µM (inactive) in experiment [5]; 92.3 µM (inactive) in experiment [6]. The GI50 was > 100 µM (inactive) in experiment [7]; 53.1 µM (inactive) in [8]; 84.3 µM (inactive) in [9]; 34.4 µM (inactive) in experiment [10]; < 0.01 µM (active) in experiment [11]; > 100 µM (inactive) in experiment [12]. The GI50 in [13] is > 100 µM (inactive); in [14] it was > 100 µM (inactive); in experiment [19], > 100 µM (inactive); in experiment [16], > 100 µM (inactive); in experiment [17] it was 18.4 µM (inactive); in experiment [20], > 100 µM (inactive).
On to `N=C(N)SCc1nc(-c2ccc(Cl)cc2)no1`, for which the GI50 in experiment [1] is 14.6 µM (inactive); in experiment [2] it was 20.6 µM (inactive); in [3], 17.8 µM (inactive); in [4], 21.7 µM (inactive); in [5], 14.3 µM (inactive); in experiment [6], 18.5 µM (inactive). In addition, the GI50 in experiment [7] is 32.7 µM (inactive); in [8], 20.8 µM (inactive); in [9], 14.6 µM (inactive); in experiment [11], 13.8 µM (inactive); in [12], 16.8 µM (inactive); in experiment [13] it was 31.1 µM (inactive). Besides, the GI50 is 27.3 µM (inactive) in experiment [14]; 29.1 µM (inactive) in [18]; 13.2 µM (inactive) in experiment [19]; 5.71 µM (inactive) in experiment [15]; 12.6 µM (inactive) in experiment [16]; 10.2 µM (inactive) in experiment [17]. In experiment [20], the GI50 is 23.8 µM (inactive).
For the molecule `NNC(=S)NCCNC(=S)NN`, the GI50 in [1], in experiment [3], in experiment [4], in experiment [5], in experiment [6] and in experiment [7] was > 100 µM (inactive) each time. In addition, the GI50 in experiment [8], in [9], in [10], in [11], in [12] and in experiment [13] was > 100 µM (inactive) in each case. For the same molecule, the GI50 in experiment [14] was > 100 µM (inactive); in experiment [19] it was > 100 µM (inactive); in experiment [16], 30.3 µM (inactive); in experiment [17], > 100 µM (inactive); in experiment [20] it was > 100 µM (inactive).
For `COc1ccc(CC2C(=O)NC(C)C(=O)N(C)C3C(=O)N(C)C(Cc4ccc(O)c(c4)Oc4ccc(cc4)C3O)C(=O)NC(C)C(=O)NC(C)C(=O)N2C)cc1.COc1ccc(CC2C(=O)NC(C)C(=O)N(C)C3Cc4ccc(cc4)Oc4cc(ccc4O)CC(C(=O)NC(C)C(=O)NC(C)C(=O)N2C)N(C)C3=O)cc1` (centres undefined), the concentration for 50% growth inhibition (GI50) in experiment [1] is 0.0127 µM (active); in experiment [2] it was 0.0408 µM (active); in experiment [4], 0.0012 µM (active); in experiment [5], 0.00771 µM (active); in [6], 0.148 µM (active); in [7], 0.01 µM (active). For the same molecule, the GI50 was 0.0024 µM (active) in experiment [8]; 0.00108 µM (active) in [9]; 0.01 µM (active) in [11]; 0.00582 µM (active) in experiment [12]; 0.0168 µM (active) in [13]; 0.0552 µM (active) in experiment [14]. The GI50 in [18] was 0.00364 µM (active); in experiment [19], 0.00114 µM (active); in experiment [15], 0.01 µM (active); in experiment [16] it was 0.0115 µM (active); in experiment [17], 0.01 µM (active); in experiment [20], 0.0413 µM (active).
With `NC(=O)Cn1c(=O)oc2cc(C(=O)CN3CCOCC3)ccc21`, the GI50 in experiment [3], in experiment [4], in [5], in experiment [6], in [7] and in experiment [8] was > 100 µM (inactive) throughout. For the same molecule, the GI50 in experiment [9], in experiment [10], in experiment [11], in experiment [12], in experiment [13] and in experiment [14] was > 100 µM (inactive) each time. Besides, the GI50 in experiment [19], in experiment [15], in experiment [16] and in experiment [17] was > 100 µM (inactive) each time.
In the case of `O=C1c2cc(Cl)ccc2-n2c(noc2=O)C2CSCN12` (centres undefined), the GI50 in [1], in experiment [2], in experiment [3], in experiment [4], in experiment [5] and in [6] was > 100 µM (inactive) throughout. Besides, the GI50 in [7], in [8], in experiment [9], in [10], in experiment [12] and in experiment [13] was > 100 µM (inactive) each time. Further, the GI50 was > 100 µM (inactive) in experiment [14]; > 100 µM (inactive) in experiment [19]; 55.7 µM (inactive) in experiment [15]; > 100 µM (inactive) in experiment [16]; > 100 µM (inactive) in [17]; > 100 µM (inactive) in [20].
